# According to patent publication US8623839B2, “Compositions and methods for stabilized polysaccharide formulations” (DePuy Mitek, LLC, priority 2011, dated 2014):
# Experiments:
# [1] = test system: rat medial meniscal tear (MMT) model of osteoarthritis; assay: Rat MMT model of osteoarthritis, histology; assay type: in vivo
# From the text: In the rat medial mensical tear (MMT) model of osteoarthritis, transection of the medial meniscus results in joint deterioration and reduced weight bearing that mimics human osteoarthritis. A unilateral medial meniscal tear in 300-400 gram rats results in rapidly progressive cartilage degenerative changes characterized by chondrocyte and proteoglycan loss, fibrillation, osteophyte formation and chondrocyte cloning. Such changes are typically observed to be substantial by day 21 following the meniscal surgery. The extent of joint deterioration, as determined primarily by the extent of cartilage lesions formed, can be measured using a semi-quantitative histological scoring system.
# To test the utility of trehalose as a vehicle for intra-articularly injected compounds, a solution of trehalose was formulated as a 5% solution in 3 mM glycine-HCl buffer, having a pH of approximately 3. The solution was tested in the rat MMT model. Transection of the medial collateral ligament just below attachment to the meniscus was performed on 15 male Lewis rats. The meniscus was cut at its narrowest point (away from the ossicles) taking care not to damage the tibial surface.
# Beginning three days after MMT surgery, intra-articular injections of the trehalose solution were given weekly for five weeks, followed by euthanasia at week six.
# Such measurements are taken using an ocular micrometer from stained histological cross sections of the medial compartment of the joint.
# These measurements are taken using an ocular micrometer from stained histological cross sections of the medial compartment of the joint.
# Cartilage preservation also correlated to the extent of collagen degeneration. […] The extent of collagen degeneration is defined as follows: […]
# Severe damage (total or near total loss of collagen to tidemark, >90% thickness)
# Marked damage (extends through 61-90% of the cartilage thickness)
# Moderate damage (extends thru 31-60% of the cartilage thickness)
# Mild damage (extends through 11-30% of the cartilage thickness)
# Minimal damage (very superficial, affecting upper 10% only)
# Cartilage degeneration scores were determined histologically by estimating the area of non-viable (significant chondrocyte and proteoglycan loss but collagen retention) and completely absent cartilage matrix, then estimating the percentage of that area compared to the area of the extrapolated original cartilage cross sectional area. A score of 1-5 is assigned, with a score of 1 indicating cartilage degeneration of 10% or less, and a score of 5 indicating complete cartilage degeneration. In FIG. 8, Zone 1 refers to the one third of the medial tibial plateau closest to the transected meniscus. […]
# [2] = test system: rabbit anterior cruciate ligament transection (ACLT) model of OA; assay: Rabbit ACLT model of osteoarthritis, modified Mankin scale; assay type: in vivo; settings: 5% solution in 3 mM glycine-HCl buffer pH approx. 3, intra-articular weekly for seven weeks, euthanasia at 8 weeks; vs untreated animals (FIG. 9)
# Protocol: The trehalose formulation (a 5% trehalose solution in 3 mM glycine-HCl buffer having a pH of approximately 3) described above was also tested in the rabbit anterior cruciate ligament transection (ACLT) model of OA. The ACLT surgery destabilized the rabbit knee to a greater extent than meniscal transection, resulting in not only substantial cartilage deterioration but also osteophyte formation. Studies investigating the development and regulation of osteophyte formation in the rabbit model of OA have detected plate-like formations as early as 4 weeks post-ACLT, and osteophyte growth in all compartments of the knee by 12 weeks post-ACLT.
# Rabbits were anesthetized. The patellar fat pad was retracted, and the ACL was isolated. The anterior cruciate ligament was severed with a surgical blade. The fibrous capsule and subcutaneous tissue were closed prior to the skin being sutured. Beginning one week after surgery, intra-articular injections were given weekly for seven weeks, followed by euthanasia at 8 weeks. Cartilage degradation was determined histologically using a modified Mankin scale. Higher scores indicated more extensive cartilage degradation, with a maximum score of 18.
# […] decreased cartilage degeneration as a result of the intra-articular trehalose injections.
structure (smiles),measurement,setting,value
"OC[C@H]1O[C@H](O[C@H]2O[C@H](CO)[C@@H](O)[C@H](O)[C@H]2O)[C@H](O)[C@@H](O)[C@@H]1O [trehalose, α-D-glucopyranosyl α-D-glucopyranoside]",width of significant cartilage lesions (chondrocyte and proteoglycan loss through 50% or more of cartilage thickness),"[1]; 5% solution in 3 mM glycine-HCl buffer pH approx. 3, intra-articular weekly for five weeks, euthanasia at week six, vs no treatment (FIG. 5)",significant reduction
same,lesion Depth Ratio,"[1]; 5% solution, intra-articular weekly for five weeks, vs no treatment (FIG. 6)",significant improvement
same,width of cartilage lesions with marked or severe collagen depletion,"[1]; 5% solution, intra-articular weekly for five weeks, vs no treatment (FIG. 7)",significantly reduced
same,cartilage degeneration score of medial tibial plateau,"[1]; all three zones, 5% solution, intra-articular weekly for five weeks (FIG. 8)",statistically improved
same,modified Mankin score,[2],significant improvement
